In PubChem BioAssay (NCI):
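GI50 is the concentration that inhibits growth by half. TGI: concentration producing complete growth inhibition.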

Key:
Experiment in all cases: NCI anticancer screen, dose series, 384-well format
A549 NSCLC = system: A549 NSCLC
OVCAR-3 ovarian = system: OVCAR-3 ovarian
MDA-MB-468 breast = system: MDA-MB-468 breast
ACHN renal = system: ACHN renal
OVCAR-4 ovarian = system: OVCAR-4 ovarian
NCI-H23 lung = system: NCI-H23 lung
UACC-62 melanoma = system: UACC-62 melanoma
BT-549 breast = system: BT-549 breast
SNB-75 CNS = system: SNB-75 CNS
SK-MEL-2 melanoma = system: SK-MEL-2 melanoma
CAKI-1 renal = system: CAKI-1 renal
IGROV1 ovarian = system: IGROV1 ovarian
SNB-19 CNS = system: SNB-19 CNS

COC(=O)c1ccc2c(C(=Nc3ccc(N(C)C(=O)CN4CCN(C)CC4)cc3)c3ccccc3)c(O)[nH]c2c1
GI50 (A549 NSCLC): 1740 nM
TGI (A549 NSCLC): 3320 nM
GI50 (OVCAR-3 ovarian): 1780 nM
TGI (OVCAR-3 ovarian): 3260 nM
GI50 (MDA-MB-468 breast): 1670 nM
TGI (MDA-MB-468 breast): 3080 nM
GI50 (ACHN renal): 1360 nM
TGI (ACHN renal): 2890 nM
GI50 (OVCAR-4 ovarian): 1440 nM
TGI (OVCAR-4 ovarian): 2870 nM
GI50 (NCI-H23 lung): 1790 nM
TGI (NCI-H23 lung): 5170 nM
GI50 (UACC-62 melanoma): 1900 nM
TGI (UACC-62 melanoma): 3320 nM
GI50 (BT-549 breast): 1490 nM
TGI (BT-549 breast): 2830 nM
GI50 (SNB-75 CNS): 468 nM
TGI (SNB-75 CNS): 1510 nM
GI50 (SK-MEL-2 melanoma): 1720 nM
TGI (SK-MEL-2 melanoma): 3120 nM
GI50 (CAKI-1 renal): 1370 nM
TGI (CAKI-1 renal): 2810 nM
GI50 (IGROV1 ovarian): 427 nM
TGI (IGROV1 ovarian): 4470 nM
GI50 (SNB-19 CNS): 1440 nM
TGI (SNB-19 CNS): 4320 nM
